Data as given in ChEMBL document CHEMBL4011609, “Discovery of novel BRD4 inhibitors by high-throughput screening, crystallography, and cell-based assays” (Bioorg Med Chem Lett, 2017).
pIC50: −log10 of the molar value. The source made the active and inactive calls. The calls are words filed in the database; no cut-off is given here.

Assays:
MV4-11 [1] = assay: Induction of apoptosis in human MV4-11 cells assessed as apoptotic cells at 27 uM after 72 hrs by Annexin V-FITC/propidium iodide staining based flow cytometry (reference value: 3.62 %); assay type: functional
MV4-11 [2] = assay: Antiproliferative activity against human MV4-11 cells after 3 days by Alamar blue assay; settings: MV4-11, 72 h
[3] = molecular target: T1, Bromodomain-containing protein 4 (Homo sapiens, UniProt O60885); assay: Inhibition of BRD4 BD1 in human MV4-11 cells assessed as reduction in c-Myc expression after 6 hrs by Western blot method; assay type: cell-based
[4] = molecular target: SWI/SNF-related matrix-associated actin-dependent regulator of chromatin subfamily A member 2 (Homo sapiens) (UniProt P51531); assay: Inhibition of SMARCA2 (unknown origin) at 100 uM using acetylated lysine as substrate relative to control
[5] = molecular target: T2, Bromodomain-containing protein 7 (Homo sapiens) (UniProt Q9NPI1); assay: Inhibition of BRD7 (unknown origin) at 100 uM using acetylated lysine as substrate relative to control
T2 sequence (whole entry): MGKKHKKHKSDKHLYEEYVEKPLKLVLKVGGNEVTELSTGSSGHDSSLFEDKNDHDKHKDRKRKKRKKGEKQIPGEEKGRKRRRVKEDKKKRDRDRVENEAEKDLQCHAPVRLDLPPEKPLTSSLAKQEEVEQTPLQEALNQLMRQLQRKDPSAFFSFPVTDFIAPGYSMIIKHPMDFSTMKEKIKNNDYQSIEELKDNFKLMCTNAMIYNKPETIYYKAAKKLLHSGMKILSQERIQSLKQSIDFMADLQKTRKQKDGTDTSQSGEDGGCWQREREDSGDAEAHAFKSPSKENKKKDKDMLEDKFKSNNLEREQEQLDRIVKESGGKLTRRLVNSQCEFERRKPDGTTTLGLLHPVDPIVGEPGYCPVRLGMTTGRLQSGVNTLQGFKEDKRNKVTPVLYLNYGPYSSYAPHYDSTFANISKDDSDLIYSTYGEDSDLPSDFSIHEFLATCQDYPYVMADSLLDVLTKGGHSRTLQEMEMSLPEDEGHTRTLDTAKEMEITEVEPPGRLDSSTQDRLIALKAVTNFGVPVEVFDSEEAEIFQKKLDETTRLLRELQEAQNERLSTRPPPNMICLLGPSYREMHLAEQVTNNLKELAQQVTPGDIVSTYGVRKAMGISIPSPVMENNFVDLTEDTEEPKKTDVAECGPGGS

[6] = molecular target: T1, Bromodomain-containing protein 4; assay: Binding affinity to human BRD4 BD1 (49 to 170 residues) expressed in Escherichia coli BL21(DE3) assessed as change in melting temperature at 50 uM by SYPRO Orange probe-based Real-Time PCR method
[7] = molecular target: T1, Bromodomain-containing protein 4; assay: Inhibition of BRD4 BD1 in human MV4-11 cells assessed as reduction in CDK6 mRNA level at 10 to 30 uM after 6 hrs by Sybr green dye based qRT-PCR analysis; assay type: cell-based
[8] = molecular target: T1, Bromodomain-containing protein 4; assay: Binding affinity to human BRD4 BD1 (49 to 170 residues) expressed in Escherichia coli BL21(DE3) assessed as change in melting temperature at 200 uM by SYPRO Orange probe-based Real-Time PCR method
[9] = molecular target: T2, Bromodomain-containing protein 7 (Homo sapiens); assay: Inhibition of BRD7 (unknown origin) at 50 uM using acetylated lysine as substrate relative to control
MV4-11 [10] = assay: Antiproliferative activity against human MV4-11 cells after 7 days by Alamar blue assay; settings: MV4-11, 168 h
[11] = molecular target: T1, Bromodomain-containing protein 4; assay: Inhibition of human BRD4-BD1 (49 to 170 residues) expressed in Escherichia coli BL21(DE3) using N-C:SGRG-K(Ac)-GG-K(Ac)-GLG-K(Ac)-GGA-K(Ac)-RHRKVGG-K(biotin) as substrate preincubated for 15 mins followed by substrate addition measured after 5 mins by AlphaScreen assay
[12] = molecular target: T3, Bromodomain-containing protein 9 (Homo sapiens) (UniProt Q9H8M2); assay: Inhibition of BRD9 (unknown origin) at 100 uM using acetylated lysine as substrate relative to control
T3 sequence (whole entry): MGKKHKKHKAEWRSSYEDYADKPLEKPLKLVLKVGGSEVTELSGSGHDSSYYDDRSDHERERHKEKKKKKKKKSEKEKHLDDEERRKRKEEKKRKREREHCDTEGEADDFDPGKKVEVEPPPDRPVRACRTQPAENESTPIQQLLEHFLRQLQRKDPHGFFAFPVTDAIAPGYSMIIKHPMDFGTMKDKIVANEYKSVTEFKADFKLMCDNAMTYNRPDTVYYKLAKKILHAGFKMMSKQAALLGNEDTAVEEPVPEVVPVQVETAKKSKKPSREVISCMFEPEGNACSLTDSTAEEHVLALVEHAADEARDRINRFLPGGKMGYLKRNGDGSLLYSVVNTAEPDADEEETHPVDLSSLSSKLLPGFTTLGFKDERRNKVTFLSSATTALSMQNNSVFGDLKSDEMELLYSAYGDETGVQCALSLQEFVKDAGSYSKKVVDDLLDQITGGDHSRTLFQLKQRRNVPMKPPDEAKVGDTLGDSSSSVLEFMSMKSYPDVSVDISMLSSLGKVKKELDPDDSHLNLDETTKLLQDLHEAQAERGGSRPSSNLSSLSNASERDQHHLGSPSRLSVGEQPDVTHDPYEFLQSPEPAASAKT

[13] = molecular target: T1, Bromodomain-containing protein 4; assay: Binding affinity to human BRD4 BD1 (49 to 170 residues) expressed in Escherichia coli BL21(DE3) assessed as change in melting temperature by SYPRO Orange probe-based Real-Time PCR method
MV4-11 [14] = assay: Induction of apoptosis in human MV4-11 cells assessed as live cells at 27 uM after 72 hrs by Annexin V-FITC/propidium iodide staining based flow cytometry (reference value: 92 %); assay type: functional
[15] = molecular target: Nucleosome-remodeling factor subunit BPTF (Homo sapiens) (UniProt Q12830); assay: Inhibition of FALZ (unknown origin) at 100 uM using acetylated lysine as substrate relative to control
[16] = molecular target: T1, Bromodomain-containing protein 4; assay: Binding affinity to human BRD4 BD1 (49 to 170 residues) expressed in Escherichia coli BL21(DE3) assessed as change in melting temperature at 100 uM by SYPRO Orange probe-based Real-Time PCR method
MV4-11 [17] = assay: Induction of apoptosis in human MV4-11 cells assessed as necrotic cells at 27 uM after 72 hrs by Annexin V-FITC/propidium iodide staining based flow cytometry (reference value: 1.68 %); assay type: functional
MV4-11 [18] = assay: Cell cycle arrest in human MV4-11 cells assessed as accumulation at S phase at 27 uM after 24 hrs by propidium iodide/RNase staining based flow cytometry (reference value: 31.98 %); assay type: functional
[19] = molecular target: Nucleosome-remodeling factor subunit BPTF (Homo sapiens) (UniProt Q12830); assay: Inhibition of FALZ (unknown origin) at 50 uM using acetylated lysine as substrate relative to control
[20] = molecular target: SWI/SNF-related matrix-associated actin-dependent regulator of chromatin subfamily A member 2 (Homo sapiens) (UniProt P51531); assay: Inhibition of SMARCA2 (unknown origin) at 50 uM using acetylated lysine as substrate relative to control
[21] = molecular target: T1, Bromodomain-containing protein 4; assay: Inhibition of BRD4 BD1 in human MV4-11 cells assessed as reduction in Bcl-2 mRNA level at 10 to 30 uM after 6 hrs by Sybr green dye based qRT-PCR analysis; assay type: cell-based
[22] = molecular target: T3, Bromodomain-containing protein 9 (Homo sapiens); assay: Inhibition of BRD9 (unknown origin) at 50 uM using acetylated lysine as substrate relative to control
MV4-11 [23] = assay: Cell cycle arrest in human MV4-11 cells assessed as accumulation at G0/G1 phase at 27 uM after 24 hrs by propidium iodide/RNase staining based flow cytometry (reference value: 57.54%); assay type: functional
MV4-11 [24] = assay: Cell cycle arrest in human MV4-11 cells assessed as accumulation at G2 phase at 27 uM after 24 hrs by propidium iodide/RNase staining based flow cytometry (reference value: 10.48 %); assay type: functional
[25] = molecular target: T1, Bromodomain-containing protein 4; assay: Inhibition of BRD4 BD1 in human MV4-11 cells assessed as reduction in c-Myc mRNA level at 10 to 30 uM after 6 hrs by Sybr green dye based qRT-PCR analysis; assay type: cell-based

Sequence of SWI/SNF-related matrix-associated actin-dependent regulator of chromatin subfamily A member 2 (Homo sapiens) (P51531 whole entry): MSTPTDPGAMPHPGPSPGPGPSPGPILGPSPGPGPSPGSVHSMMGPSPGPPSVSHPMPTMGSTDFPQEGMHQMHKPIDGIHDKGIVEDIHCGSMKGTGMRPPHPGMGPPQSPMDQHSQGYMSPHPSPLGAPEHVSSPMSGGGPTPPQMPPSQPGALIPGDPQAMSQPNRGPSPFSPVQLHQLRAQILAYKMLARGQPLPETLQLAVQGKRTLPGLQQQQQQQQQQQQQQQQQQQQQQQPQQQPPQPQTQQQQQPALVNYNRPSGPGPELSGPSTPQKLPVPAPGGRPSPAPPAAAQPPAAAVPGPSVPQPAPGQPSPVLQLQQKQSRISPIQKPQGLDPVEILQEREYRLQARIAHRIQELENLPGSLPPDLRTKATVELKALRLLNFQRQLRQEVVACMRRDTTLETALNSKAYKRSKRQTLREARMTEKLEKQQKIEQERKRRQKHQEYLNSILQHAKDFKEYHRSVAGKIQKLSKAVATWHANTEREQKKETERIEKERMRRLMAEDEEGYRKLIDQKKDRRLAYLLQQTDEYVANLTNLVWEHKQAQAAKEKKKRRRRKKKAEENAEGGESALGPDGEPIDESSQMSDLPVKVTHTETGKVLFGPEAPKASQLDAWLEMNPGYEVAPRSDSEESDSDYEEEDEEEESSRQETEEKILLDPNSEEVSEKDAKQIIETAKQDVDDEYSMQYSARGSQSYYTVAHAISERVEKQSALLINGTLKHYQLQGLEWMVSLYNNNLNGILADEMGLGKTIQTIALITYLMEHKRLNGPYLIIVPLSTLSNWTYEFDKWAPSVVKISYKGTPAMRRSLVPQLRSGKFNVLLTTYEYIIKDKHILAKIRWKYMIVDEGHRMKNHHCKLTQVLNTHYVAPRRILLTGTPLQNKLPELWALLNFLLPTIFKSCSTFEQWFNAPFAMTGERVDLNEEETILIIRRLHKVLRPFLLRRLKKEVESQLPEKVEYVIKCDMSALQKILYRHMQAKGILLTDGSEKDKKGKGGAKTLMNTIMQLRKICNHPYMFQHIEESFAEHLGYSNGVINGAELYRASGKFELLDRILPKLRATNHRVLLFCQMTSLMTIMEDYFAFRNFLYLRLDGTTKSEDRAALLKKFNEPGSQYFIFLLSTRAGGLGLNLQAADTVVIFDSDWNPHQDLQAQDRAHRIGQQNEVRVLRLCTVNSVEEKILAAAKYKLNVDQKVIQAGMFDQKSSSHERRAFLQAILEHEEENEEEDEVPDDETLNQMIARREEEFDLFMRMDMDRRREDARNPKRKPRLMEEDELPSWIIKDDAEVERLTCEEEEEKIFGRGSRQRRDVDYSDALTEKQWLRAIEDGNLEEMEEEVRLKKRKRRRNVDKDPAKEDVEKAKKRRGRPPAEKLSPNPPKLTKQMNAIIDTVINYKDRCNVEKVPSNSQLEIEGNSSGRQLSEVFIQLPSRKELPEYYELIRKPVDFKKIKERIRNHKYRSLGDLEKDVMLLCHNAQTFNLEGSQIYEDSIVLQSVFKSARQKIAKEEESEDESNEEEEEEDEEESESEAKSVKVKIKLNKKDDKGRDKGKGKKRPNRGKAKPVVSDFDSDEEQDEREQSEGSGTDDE

- pIC50 (MV4-11 [2]): 4.73
- inhibition [3]: Dose-dependent effect
- inhibition [4]: inactive
- inhibition [5]: 16%
- ΔTm [6]: 0.85 °C
- inhibition [7]: Active
- ΔTm [8]: 7.07 °C
- inhibition [9]: 9%
- pIC50 (MV4-11 [10]): 5.00
- pIC50 [11]: 6.09
- inhibition [12]: 12%
- deltaTm [13]: Dose-dependent effect
- inhibition [15]: inactive
- ΔTm [16]: 3.06 °C
- inhibition [19]: inactive
- inhibition [20]: inactive
- inhibition [21]: Active
- inhibition [22]: inactive
- inhibition [25]: Active
SMILES: CN(CCCNc1cc(=O)oc2ccccc12)C(=O)c1cccs1
- Activity (MV4-11 [1]): 10.7%
- Activity (MV4-11 [14]): 76.2%
- Activity (MV4-11 [17]): 6.9%
- Activity (MV4-11 [18]): 18.93%
- Activity (MV4-11 [23]): 75.23%
- Activity (MV4-11 [24]): 5.84%
